Laboratory results from publication PMC8751750, “Effect of using different co-ligands during ^99mTc-labeling of J18 peptide on SK-MES-1 cell binding and tumor targeting” (Iranian Journal of Basic Medical Sciences, 2021).
Entries after “also recorded” stand apart in the source; their conditions may differ. Peptide text beside a SMILES is read from it.

How the values were obtained:
SK-MES-1 cells = test: Specific binding (blocking with unlabeled peptide) on SK-MES-1 cells; set-up: species or system human
Description: The in vitro receptor binding of the^ 99mTc-labeled peptide was evaluated using SK-MES-1 a human lung squamous cell carcinoma, SKOV-3 human ovarian carcinoma, and A-549 human lung adenocarcinoma epithelial and MCF-7 human breast cancer cell lines. All cell lines were kept at 37 °C in a 5% CO2 incubator and were maintained in Dulbecco’s DMEM-high glucose supplemented with 10% FBS. Cells were plated in 24-well plates at a density of 4×10^5 cells/well in 1 ml of complete medium and incubated for 24 hr to allow in cells to settle. Following a wash with cold serum-free media or PBS, 40 nM radiolabeled peptides in the full medium were given to the cells, which were then incubated at 37 °C for 2 hr. Finally, cells in culture plates were trypsinized and released, and radioactivity in the cells was measured. To determine specific versus nonspecific binding, SK-MES-1 cells were seeded into 12-well plates at a density of 5×10^5 cells/well and incubated with unlabeled peptides at a concentration 500-fold higher than the labeled peptide for 20 min at 37 °C, followed by the addition of the radiolabeled peptide to the wells. These cells were incubated for 2 hr at 37 °C in a humidified incubator.

[1] = Biodistribution in normal mice; type: in vivo; conditions: i.v. 1 μg in 100 μl (18.5 MBq), mean±SD, n=4; for Intestine uptake (with contents): normal female NMRI mice
Description: All animal investigations were approved by Mazandaran University of Medical Sciences Research and Ethical Committee in Sari, Iran. Twelve normal female NMRI mice (20–30 g) were randomly divided into three groups of four. 1 μg of (^99mTc) Tc –HYNIC–J18 peptide in 100 μl of buffer (18.5 MBq) was injected into the tail vein. All animals were sacrificed one, four, and twenty-four hours following radiolabeled peptide injection. Mice were euthanized with an appropriate dose of ketamine/xylazine (Sigma, USA) diluted with sterile water (1:3 v/v). Following deep anesthesia, blood was extracted by heart puncture with a 1-mL syringe washed with diluted heparin. Blood, liver, spleen, salivary gland, stomach, kidney, muscle, and bone samples were dissected and weighed, and radioactivity was measured. Except for the intestines, which were computed as a percentage of the injected dose per gram tissue (percent ID/g), the tissue uptake data was calculated as a percentage of the administered dose per total sample.

## CC(C)C[C@H](NC(=O)[C@H](CO)NC(=O)[C@H](CCCNC(=N)N)NC(=O)[C@H](CO)NC(=O)[C@H](CO)NC(=O)[C@H](CO)NC(=O)c1ccc(NN)nc1)C(=O)N[C@@H](Cc1c[nH]c2ccccc12)C(=O)N[C@@H](CO)C(=O)N[C@@H](CC(=O)O)C(=O)N[C@@H](Cc1ccccc1)C(=O)N[C@@H](Cc1ccc(O)cc1)C(=O)N[C@@H](C)C(=O)N[C@@H](CO)C(=O)N[C@@H](C)C(=O)N[C@@H](CO)C(=O)N[C@@H](CCCNC(=N)N)C(=O)NCC(=O)N1CCC[C@H]1C(=O)O [Peptide 1, (^99mTc)Tc-HYNIC-(Ser)3-J18 with tricine, metal not drawn] (HELM PEPTIDE1{[NNc1ccc(C(=O)[*:2])cn1].S.S.S.R.S.L.W.S.D.F.Y.A.S.A.S.R.G.P}$$$$V2.0; C-terminus assumed)
SK-MES-1 cells; 500-fold unlabeled peptide 20 min at 37 °C, then radiolabeled peptide 2 hr at 37 °C, listed as 99mTc-peptide 1
  reduction of binding by pre-saturation with unlabeled J18 peptide: ~11.5 fold
SK-MES-1 cells; abstract, listed as 99mTc-peptide 1
  specific binding: 11.5 fold
SK-MES-1 cells; listed as 99mTc-J18 peptide with tricine co-ligand
  specific binding to SK-MES-1, in words: higher specific binding to SK-MES-1 in comparison with tricine/EDDA coligand
SK-MES-1 cells; listed as 99mTc-peptide 1
  specific binding to SK-MES-1, in words: high specific binding; also recorded: high specificity
[1]; 4 hr
  Intestine uptake (with contents): 5.85±2.14 percentage of injected dose per whole sample
[1]; 24 hr
  Intestine uptake (with contents): 1.11±0.38 percentage of injected dose per whole sample
[1]; female, NMRI, mouse, spleen, iv, 1 ug, total radioactivity, 4 hr
  tissue uptake at 4 h: 2.24 ± 1.81 %ID/g
